Data from ChEMBL document CHEMBL1135233, “Cytotoxic, antifouling bromotyramines: a synthetic study on simple marine natural products and Their analogues” (Bioorg Med Chem Lett, 2002).
In brackets after ≈: the same amount, converted by molar mass.

Columns and labels:
[1] = tested on: SF-268; assay: Tested for growth inhibition against human SF-268 CNS cancer cell line at 100 uM; format: functional
[2] = tested on: MCF7; assay: Tested for growth inhibition against human MCF-7 breast cancer cell line at 100 uM; format: functional
[3] = tested on: Amphibalanus amphitrite; assay: Antifouling activity of compound against Balanus amphitrite expressed by inhibition of settlement of barnacle cyprids; format: functional
[4] = tested on: NCI-H460; assay: Tested for growth inhibition against human NCI-H460 lung cancer cell line at 100 uM; format: functional
[5] = tested on: CCRF-CEM; assay: Tested for the cytotoxicity against CCRF-CEM leukemia cell line […]; format: functional; settings: Homo sapiens
[6] = tested on: Hs-578T; assay: Tested for the cytotoxicity against Hs 578.T breast cancer cell line; format: functional; settings: Homo sapiens
[7] = tested on: NCI-H226; assay: Tested for the cytotoxicity against NCI-H226 lung cancer cell line […]; format: functional; settings: Homo sapiens
[8] = tested on: SW-620; assay: Tested for the cytotoxicity against SW-620 colon cancer cell line […]; format: functional; settings: Homo sapiens
[9] = Tested for the lethality dose against barnacle cyprids of Balanus amphitrite; settings: Amphibalanus amphitrite; read-out: LD50 (the source's name)
[10] = tested on: NCI-H460; assay: Tested for the cytotoxicity against NCI-H460 lung cancer cell line […]; format: functional; settings: Homo sapiens
[11] = tested on: P388; assay: Tested for the inhibition against P388 murine leukemia cell; format: functional, cell-based; settings: Mus musculus

Structure (SMILES) | Growth [1] | Growth [2] | EC50 [3] | Growth [4] | GI50 [5] | GI50 [6] | GI50 [7] | GI50 [8] | LC50 [9] | GI50 [10] | IC50 [11]
NCCOc1c(Br)cc(CCN)cc1Br | 70% | 39% | 0.8 µg/mL (≈ 2.37 µM) | 70% | – | – | – | – | – | – | –
COc1c(Br)cc(CCN)cc1Br | 16% | 8% | 0.07 µg/mL (≈ 0.227 µM) | 53% | < 10 nM | 200 nM | < 10 nM | < 10 nM | 0.2 µg/mL (≈ 0.647 µM) | – | –
NCCCOc1ccc(CCN)cc1 | 120% | 104% | > 50 µg/mL | 120% | – | – | – | – | – | – | –
NCCCOc1c(Cl)cc(CCN)cc1Cl | 85% | -53% | 33 µg/mL (≈ 125 µM) | 93% | – | – | – | – | – | – | –
NCCCCOc1c(Br)cc(CCN)cc1Br | 50% | 19% | 6 µg/mL (≈ 16.4 µM) | 25% | – | – | – | – | – | – | –
CCCCCCCC(=O)NCCc1cc(Br)c(OC)c(Br)c1 | -68% | -74% | 0.2 µg/mL (≈ 0.46 µM) | 1% | 400 nM | – | – | – | 1 µg/mL (≈ 2.3 µM) | – | –
CC(=O)NCCc1cc(Br)c(O)c(Br)c1 | 84% | 88% | – | 105% | – | – | – | – | – | – | –
CCCCCCCCNCCc1cc(Br)c(OC)c(Br)c1 | -84% | -82% | 0.008 µg/mL (≈ 0.019 µM) | -83% | – | – | – | – | 0.03 µg/mL (≈ 0.0712 µM) | 50 nM | –
N#CC(=O)NCCCOc1c(Br)cc(CCN)cc1Br [CERATINAMINE] | 39% | 7% | – | 82% | – | – | – | – | – | – | –
NCCCOc1c(Br)cc(CCN)cc1Br [MOLOKA'IAMINE] | 62% | 38% | 5 µg/mL (≈ 14.2 µM) | 68% | – | – | – | – | – | – | 2.1 µg/mL (≈ 5.96 µM)
